Results from patent US20090220448A1, “HAIR CARE COMPOSITIONS AND METHODS FOR INCREASING HAIR DIAMETER AND FOR IMMEDIATE FULLER/THICKER HAIR APPEARANCE” (priority 2008, published 2009).

System: Primary human dermal papilla cells
Test: Synergy study: survival of metabolically stressed dermal papilla cells (ATP, Cell Titer Glo)
Format: cell-based
Conditions: 0.05%, 48 hours metabolic stress in reduced media, control 100% water
Description: The dermal papilla, in normal human hair, is the control center for hair diameter. Increasing survival of dermal papilla cells in situ leads to increased hair diameter. Accordingly, an increase in survival of dermal papilla cells correlates with an increase in hair diameter.
Primary human dermal papilla cells were metabolically stressed for 48 hours in reduced standard tissue culture media. During this period of stress the cells were treated with the mixtures or individual ingredients below. After 48 hr the metabolic activity of the cells was measured by the amount of ATP using the Cell Titer Glo™ kit (Promega).

Cn1c(=O)c2c(ncn2C)n(C)c1=O [Caffeine]
Survival rate: % Change from Control: +41%
